Test results taken from ChEMBL document CHEMBL4311945, “Development of Dual Chitinase Inhibitors as Potential New Treatment for Respiratory System Diseases” (J Med Chem, 2019).
In brackets after ≈: the same amount, converted by molar mass.

Legend:
Chitotriosidase-1 [1] = biological target: Chitotriosidase-1 (Homo sapiens, UniProt Q13231); assay: Inhibition of full-length C-terminal his-tagged human CHIT1 expressed in CHOK1 cells assessed as reduction in chitinolytic activity using 4-methylumbelliferyl-beta-D-N,N',N\"-triacetylchitotrioside as substrate after 60 mins by fluorometric assay; assay type: cell-based
[2] = Genotoxicity in Salmonella typhimurium; assay type: toxicity; settings: salmonella enterica subsp. enterica serovar typhimurium
[3] = Clearance in BALB/c mouse at 3 mg/kg, iv administered as single bolus dose measured after 24 hrs by LC/MS/MS analysis; assay type: ADME, organism-based; settings: in vivo
[4] = Tmax in Sprague-Dawley rat at 10 mg/kg, po measured upto 12 hrs by LC/MS/MS analysis; assay type: ADME, organism-based; settings: in vivo
Chitotriosidase-1 [5] = biological target: Chitotriosidase-1 (Mus musculus, UniProt Q9D7Q1); assay: Inhibition of full-length C-terminal his-tagged mouse CHIT1 expressed in CHO-K1 cells assessed as reduction in chitinolytic activity using 4-methylumbelliferyl-beta-D-N,N',N\"-triacetylchitotrioside as substrate after 60 mins by fluorometric assay; assay type: cell-based
[6] = Solubility of the compound in water; assay type: physicochemical
[7] = AUC (0 to infinity) in Sprague-Dawley rat at 10 mg/kg, po measured upto 12 hrs by LC/MS/MS analysis; assay type: ADME, organism-based; parameters: dose 10 mg/kg, route oral, time infinity; settings: in vivo
[8] = Drug uptake in BALB/c mouse brain at 10 mg/kg, po administered as single dose after 2 hrs by LC/MS/MS analysis; assay type: ADME, organism-based; settings: in vivo
Mus musculus = assay: Antiinflammatory activity in C57BL/6 mouse model of house-dust mite induced pulmonary inflammation assessed as reduction in total CD45 positive cells in bronchoalveolar lavage fluid at 50 mg/kg, po administered once daily starting from day 7 post house-dust mite challenge and measured on day 19 by flow cytometric method relative to control; assay type: functional; parameters: scale not given: the % may be the effect or the level left
[9] = biological target: T1, Voltage-gated inwardly rectifying potassium channel KCNH2 (Homo sapiens, UniProt Q12809); assay: Displacement of Tracer Red from human ERG by fluorescence polarization assay
[10] = biological target: dopamine transporter (DAT) (Homo sapiens, UniProt Q01959); assay: Displacement of [3H]BTCP from recombinant human dopamine transporter at 10 uM after 120 mins by scintillation counting analysis relative to control; assay type: ADME; settings: probe [3H]BTCP
[11] = Half-life in Sprague-Dawley rat at 3 mg/kg, iv administered as single bolus dose measured after 5 to 12 hrs by LC/MS/MS analysis; assay type: ADME, organism-based; settings: in vivo
[12] = Lipophilicity, logD of the compound at pH 7.4; assay type: physicochemical; settings: buffer
[13] = AUC (0 to infinity) in BALB/c mouse at 10 mg/kg, po measured after 24 hrs by LC/MS/MS analysis; assay type: ADME, organism-based; parameters: dose 10 mg/kg, route oral, time infinity; settings: in vivo
[14] = Cmax in Sprague-Dawley rat at 3 mg/kg, iv administered as single bolus dose measured after 5 to 12 hrs by LC/MS/MS analysis; assay type: ADME, organism-based; parameters: dose 3 mg/kg, route intravenous; settings: in vivo
[15] = biological target: Sodium-dependent dopamine transporter (Rattus norvegicus, UniProt P23977); assay: Displacement of [3H]DA from rat dopamine transporter after 15 mins by scintillation counting analysis; assay type: ADME
[16] = biological target: T1, Voltage-gated inwardly rectifying potassium channel KCNH2; assay: Inhibition of human ERG expressed in CHO-K1 cells by automated Patch Clamp method; assay type: cell-based
[17] = Cmax in BALB/c mouse at 3 mg/kg, iv administered as single bolus dose measured after 24 hrs by LC/MS/MS analysis; assay type: ADME, organism-based; parameters: dose 3 mg/kg, route intravenous; settings: in vivo
[18] = Half-life in BALB/c mouse at 3 mg/kg, iv administered as single bolus dose measured after 24 hrs by LC/MS/MS analysis; assay type: ADME, organism-based; settings: in vivo
[19] = Tmax in BALB/c mouse at 10 mg/kg, po measured after 24 hrs by LC/MS/MS analysis; assay type: ADME, organism-based; settings: in vivo
[20] = biological target: Sodium-dependent dopamine transporter (Homo sapiens, UniProt Q01959); assay: Inhibition of radioligand binding to human dopamine transporter by radioligand binding assay; assay type: ADME
[21] = Oral bioavailability in BALB/c mouse at 10 mg/kg measured after 24 hrs by LC/MS/MS analysis; assay type: ADME, organism-based; settings: in vivo
[22] = Cmax in BALB/c mouse at 10 mg/kg, po measured after 24 hrs by LC/MS/MS analysis; assay type: ADME, organism-based; parameters: dose 10 mg/kg, route oral; settings: in vivo
[23] = Oral bioavailability in Sprague-Dawley rat at 10 mg/kg measured upto 12 hrs by LC/MS/MS analysis; assay type: ADME, organism-based; settings: in vivo
[24] = Cmax in Sprague-Dawley rat at 10 mg/kg, po measured upto 12 hrs by LC/MS/MS analysis; assay type: ADME, organism-based; parameters: dose 10 mg/kg, route oral; settings: in vivo
[25] = Half-life in BALB/c mouse at 10 mg/kg, po measured after 24 hrs by LC/MS/MS analysis; assay type: ADME, organism-based; settings: in vivo
[26] = AUC (0 to infinity) in BALB/c mouse at 3 mg/kg, iv administered as single bolus dose measured after 24 hrs by LC/MS/MS analysis; assay type: ADME, organism-based; parameters: dose 3 mg/kg, time infinity, route intravenous; settings: in vivo
[27] = AUC (0 to infinity) in Sprague-Dawley rat at 3 mg/kg, iv administered as single bolus dose measured after 5 to 12 hrs by LC/MS/MS analysis; assay type: ADME, organism-based; parameters: dose 3 mg/kg, time infinity, route intravenous; settings: in vivo
[28] = biological target: Acidic mammalian chitinase (Mus musculus, UniProt Q91XA9); assay: Inhibition of full-length C-terminal his-tagged mouse acidic mammalian chitinase expressed in CHO-K1 cells assessed as reduction in chitinolytic activity using 4-methylumbelliferyl-beta-D-N,N'-diacetylchitobioside hydrate as substrate after 60 mins by fluorometric assay
[29] = biological target: Acidic mammalian chitinase (Homo sapiens, UniProt Q9BZP6); assay: Inhibition of full-length C-terminal his-tagged human acidic mammalian chitinase expressed in CHOK1 cells assessed as reduction in chitinolytic activity using 4-methylumbelliferyl-beta-D-N,N-diacetylchitobioside hydrate as substrate after 60 mins by fluorometric assay
[30] = Half-life in Sprague-Dawley rat at 10 mg/kg, po measured upto 12 hrs by LC/MS/MS analysis; assay type: ADME, organism-based; settings: in vivo

T1 sequence (Q12809 whole entry): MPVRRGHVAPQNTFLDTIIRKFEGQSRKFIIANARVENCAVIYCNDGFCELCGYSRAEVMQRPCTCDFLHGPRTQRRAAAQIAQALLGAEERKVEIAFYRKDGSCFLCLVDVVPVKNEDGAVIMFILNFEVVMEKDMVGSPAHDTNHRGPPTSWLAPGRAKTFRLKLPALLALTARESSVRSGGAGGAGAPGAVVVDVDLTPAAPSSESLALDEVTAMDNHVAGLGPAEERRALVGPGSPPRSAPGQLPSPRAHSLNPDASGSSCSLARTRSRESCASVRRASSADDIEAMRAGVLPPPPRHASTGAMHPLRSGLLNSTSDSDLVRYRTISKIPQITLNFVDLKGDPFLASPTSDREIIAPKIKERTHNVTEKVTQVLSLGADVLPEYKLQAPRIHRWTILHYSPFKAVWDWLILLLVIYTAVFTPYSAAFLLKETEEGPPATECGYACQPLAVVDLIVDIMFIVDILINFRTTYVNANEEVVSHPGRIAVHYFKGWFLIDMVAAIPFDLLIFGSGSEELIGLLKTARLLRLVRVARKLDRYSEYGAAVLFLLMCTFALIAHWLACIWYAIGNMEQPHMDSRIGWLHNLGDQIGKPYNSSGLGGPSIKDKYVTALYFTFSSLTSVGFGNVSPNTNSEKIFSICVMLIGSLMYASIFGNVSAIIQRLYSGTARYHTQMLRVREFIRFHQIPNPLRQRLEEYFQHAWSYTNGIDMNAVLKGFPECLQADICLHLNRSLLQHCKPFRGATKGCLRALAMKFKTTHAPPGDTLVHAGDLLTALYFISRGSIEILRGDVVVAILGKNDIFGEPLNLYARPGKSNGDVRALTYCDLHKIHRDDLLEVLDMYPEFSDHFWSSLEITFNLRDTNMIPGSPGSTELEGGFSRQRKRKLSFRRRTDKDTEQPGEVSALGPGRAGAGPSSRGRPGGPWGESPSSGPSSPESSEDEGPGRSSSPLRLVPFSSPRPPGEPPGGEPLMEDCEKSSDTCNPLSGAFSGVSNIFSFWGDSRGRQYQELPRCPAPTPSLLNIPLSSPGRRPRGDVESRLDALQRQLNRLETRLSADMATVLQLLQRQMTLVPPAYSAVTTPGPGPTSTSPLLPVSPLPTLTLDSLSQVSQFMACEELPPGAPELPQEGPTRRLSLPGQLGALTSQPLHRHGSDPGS
Acidic mammalian chitinase (Mus musculus, UniProt Q91XA9), sequence (Q91XA9 whole entry): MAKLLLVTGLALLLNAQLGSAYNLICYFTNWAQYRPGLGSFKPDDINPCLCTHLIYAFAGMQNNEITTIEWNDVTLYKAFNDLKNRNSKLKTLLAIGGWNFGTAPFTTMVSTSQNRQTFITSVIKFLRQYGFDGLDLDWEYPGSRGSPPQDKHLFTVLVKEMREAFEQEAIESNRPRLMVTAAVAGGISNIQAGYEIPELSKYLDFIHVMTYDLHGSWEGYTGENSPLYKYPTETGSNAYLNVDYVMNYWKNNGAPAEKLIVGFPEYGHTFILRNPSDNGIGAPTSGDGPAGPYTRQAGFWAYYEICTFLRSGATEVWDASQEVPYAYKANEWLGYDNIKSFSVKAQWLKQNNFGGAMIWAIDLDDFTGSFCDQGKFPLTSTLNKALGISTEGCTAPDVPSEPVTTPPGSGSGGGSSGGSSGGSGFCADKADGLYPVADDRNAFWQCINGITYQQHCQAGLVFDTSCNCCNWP
Chitotriosidase-1 (Homo sapiens, UniProt Q13231), sequence (Q13231 whole entry): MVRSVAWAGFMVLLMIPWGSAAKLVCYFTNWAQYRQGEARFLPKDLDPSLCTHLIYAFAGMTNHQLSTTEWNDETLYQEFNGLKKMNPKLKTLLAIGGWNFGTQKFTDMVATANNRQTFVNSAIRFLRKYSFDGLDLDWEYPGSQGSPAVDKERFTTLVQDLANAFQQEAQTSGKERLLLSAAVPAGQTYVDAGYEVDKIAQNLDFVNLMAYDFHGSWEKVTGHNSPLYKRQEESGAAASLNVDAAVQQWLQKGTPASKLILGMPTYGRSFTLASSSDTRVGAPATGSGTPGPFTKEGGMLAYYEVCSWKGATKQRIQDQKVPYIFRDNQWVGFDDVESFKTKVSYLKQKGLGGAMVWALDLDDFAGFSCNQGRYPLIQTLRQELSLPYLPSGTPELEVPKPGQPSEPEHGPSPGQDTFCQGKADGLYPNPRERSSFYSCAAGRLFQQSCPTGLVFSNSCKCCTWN
Acidic mammalian chitinase (Homo sapiens, UniProt Q9BZP6), sequence (Q9BZP6 whole entry): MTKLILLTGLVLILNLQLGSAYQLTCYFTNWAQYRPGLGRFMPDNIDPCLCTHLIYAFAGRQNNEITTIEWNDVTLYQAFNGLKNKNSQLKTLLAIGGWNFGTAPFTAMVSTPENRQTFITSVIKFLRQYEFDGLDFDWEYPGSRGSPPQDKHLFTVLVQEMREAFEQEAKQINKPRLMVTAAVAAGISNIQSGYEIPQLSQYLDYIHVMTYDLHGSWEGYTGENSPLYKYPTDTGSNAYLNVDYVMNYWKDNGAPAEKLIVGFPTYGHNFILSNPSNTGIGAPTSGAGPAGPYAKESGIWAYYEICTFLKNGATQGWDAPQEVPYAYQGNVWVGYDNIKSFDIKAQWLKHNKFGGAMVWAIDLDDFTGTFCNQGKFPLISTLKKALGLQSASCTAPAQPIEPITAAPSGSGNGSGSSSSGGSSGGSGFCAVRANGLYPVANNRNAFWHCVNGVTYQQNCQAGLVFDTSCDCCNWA
Chitotriosidase-1 (Mus musculus, UniProt Q9D7Q1), sequence (Q9D7Q1 whole entry): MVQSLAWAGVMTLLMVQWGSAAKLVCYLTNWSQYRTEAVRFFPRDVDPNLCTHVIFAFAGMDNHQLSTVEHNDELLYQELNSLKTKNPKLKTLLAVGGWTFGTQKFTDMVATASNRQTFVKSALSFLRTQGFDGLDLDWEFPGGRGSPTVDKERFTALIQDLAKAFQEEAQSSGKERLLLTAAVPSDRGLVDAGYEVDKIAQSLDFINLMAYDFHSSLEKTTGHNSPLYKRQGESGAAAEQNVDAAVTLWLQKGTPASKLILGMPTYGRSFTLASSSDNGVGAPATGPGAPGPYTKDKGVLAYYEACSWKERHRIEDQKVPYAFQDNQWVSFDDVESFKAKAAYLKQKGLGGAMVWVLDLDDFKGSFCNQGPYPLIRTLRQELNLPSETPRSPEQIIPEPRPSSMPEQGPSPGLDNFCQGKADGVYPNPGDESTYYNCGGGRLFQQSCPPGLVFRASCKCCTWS
Sodium-dependent dopamine transporter (Homo sapiens, UniProt Q01959), sequence (Q01959 whole entry): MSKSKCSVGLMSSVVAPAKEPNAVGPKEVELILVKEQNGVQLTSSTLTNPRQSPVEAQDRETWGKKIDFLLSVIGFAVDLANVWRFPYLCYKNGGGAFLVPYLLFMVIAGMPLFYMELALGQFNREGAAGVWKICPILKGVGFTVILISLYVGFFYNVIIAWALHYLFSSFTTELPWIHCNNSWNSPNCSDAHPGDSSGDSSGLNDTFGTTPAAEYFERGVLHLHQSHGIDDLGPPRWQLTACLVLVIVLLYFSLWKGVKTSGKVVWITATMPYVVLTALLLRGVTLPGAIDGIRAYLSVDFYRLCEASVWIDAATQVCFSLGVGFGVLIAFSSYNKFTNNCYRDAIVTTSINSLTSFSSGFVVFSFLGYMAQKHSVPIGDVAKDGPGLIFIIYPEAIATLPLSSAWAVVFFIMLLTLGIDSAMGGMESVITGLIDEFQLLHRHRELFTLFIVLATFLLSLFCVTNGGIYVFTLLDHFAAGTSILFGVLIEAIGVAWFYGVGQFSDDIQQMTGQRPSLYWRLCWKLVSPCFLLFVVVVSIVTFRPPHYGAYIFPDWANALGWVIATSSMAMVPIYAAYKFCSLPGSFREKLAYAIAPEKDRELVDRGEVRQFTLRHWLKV
dopamine transporter (DAT), sequence (Q01959 whole entry): as above
Sodium-dependent dopamine transporter (Rattus norvegicus, UniProt P23977), sequence (P23977 whole entry): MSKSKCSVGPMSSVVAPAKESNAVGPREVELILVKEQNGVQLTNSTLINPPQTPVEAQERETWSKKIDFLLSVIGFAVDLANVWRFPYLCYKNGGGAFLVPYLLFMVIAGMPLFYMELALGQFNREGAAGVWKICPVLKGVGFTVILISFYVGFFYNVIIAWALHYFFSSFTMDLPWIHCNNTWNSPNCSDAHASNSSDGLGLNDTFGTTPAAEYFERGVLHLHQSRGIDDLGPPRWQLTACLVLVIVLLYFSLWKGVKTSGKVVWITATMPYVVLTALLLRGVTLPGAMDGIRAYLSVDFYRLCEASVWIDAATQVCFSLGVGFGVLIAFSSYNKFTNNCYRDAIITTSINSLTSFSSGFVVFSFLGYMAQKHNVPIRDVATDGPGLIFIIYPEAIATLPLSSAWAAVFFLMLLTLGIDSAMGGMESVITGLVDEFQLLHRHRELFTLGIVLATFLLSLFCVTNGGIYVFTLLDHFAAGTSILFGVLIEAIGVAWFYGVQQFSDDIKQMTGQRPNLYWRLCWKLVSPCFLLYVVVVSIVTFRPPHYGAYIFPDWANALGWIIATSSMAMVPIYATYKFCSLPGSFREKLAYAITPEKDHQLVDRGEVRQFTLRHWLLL

Nc1nnc(N2CCC(N3CCOC[C@@H]3Cc3ccc(Cl)cc3)CC2)[nH]1
IC50 (Chitotriosidase-1 [1]): 0.048 µM | Activity [2]: Non-Toxic | clearance [3]: 10.5 mL/min/kg | Tmax [4]: 1.5 h | IC50 (Chitotriosidase-1 [5]): 0.074 µM | solubility [6]: 310 µg/mL (≈ 823 µM) | AUC(0-inf) [7]: 8010 ng·h/mL | Drug uptake [8]: 6.8% | Activity (Mus musculus): 37% | IC50 [9]: 39 µM | inhibition at 2 h, 10 µM [10]: 95% | half-life [11]: 7.95 h | logD [12]: 1.96 | AUC(0-inf) [13]: 11100 ng·h/mL | Cmax [14]: 16500 ng/mL | IC50 [15]: 7.9 µM | IC50 [16]: 12 µM | Cmax [17]: 1590 ng/mL | half-life [18]: 2.5 h | Tmax [19]: 1 h | IC50 [20]: 0.3 µM | bioavailability [21]: 70% | Cmax [22]: 2390 ng/mL | bioavailability [23]: 48% | Cmax [24]: 1560 ng/mL | half-life [25]: 2.68 h | AUC(0-inf) [26]: 4760 ng·h/mL | AUC [27]: 4980 ng·h/mL | IC50 [28]: 0.03 µM | IC50 [29]: 0.022 µM | half-life [30]: 2.14 h
